For one compound, IC50 results are on record in patent US12692239B2, “Methods and compositions for targeting Tregs using CCR8 inhibitors” (Nanjing Immunophage Biomedical Co., Ltd., priority 2020, dated 2026).

Where a name gives a salt, the structure may show the parent alone.

In this experiment the target is CCR8 (Homo sapiens, UniProt P51685). Nature of the experiment: Tango assay (Tango-CCR8-Gal4-CHO-K1 cells, CCL1-stimulated, ONE-Glo luminescence). As to conditions: Tango Assay IC50, Inhibition of CCR8 Tango cell in vitro.
Sequence of CCR8 (P51685 whole entry, the tested form may be a part): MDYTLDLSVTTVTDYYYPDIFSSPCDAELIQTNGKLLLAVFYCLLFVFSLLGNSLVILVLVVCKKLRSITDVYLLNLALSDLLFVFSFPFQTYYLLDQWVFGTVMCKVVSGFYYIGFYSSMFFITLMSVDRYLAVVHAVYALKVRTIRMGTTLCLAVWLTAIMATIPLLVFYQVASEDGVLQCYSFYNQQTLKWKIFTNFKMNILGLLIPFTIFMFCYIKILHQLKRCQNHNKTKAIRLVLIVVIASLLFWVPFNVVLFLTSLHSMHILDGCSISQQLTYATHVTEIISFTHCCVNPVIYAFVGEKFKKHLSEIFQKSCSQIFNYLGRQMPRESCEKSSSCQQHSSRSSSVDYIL

Description: The Tango cell line was used to monitor antagonists-mediated receptor inactivation.
Tango cells (Tango-CCR8-Gal4-CHO-K1 cells constructed by Genomeditech) were passaged in complete medium (F12K, 10% FBS, 1% penicillin-streptomycin, 4 g/ml puromycin, 4 g/ml blasticidin and 100 g/ml hygromycin) in incubator (37° C., 5% CO2).
Twenty-four hours before the seed, cells were cultured in 10 or 15 cm dish at a density of 30% confluence in culture medium (F12K, 10% FBS, 1% penicillin-streptomycin).
Cells were suspended in starving medium (F12K, 1% FBS, 1% penicillin-streptomycin) before being seeded into black/clear 96 wells (1×10^4 cells/70 μl/well) and incubated for 6 hours (37° C., 5% CO2). Different concentration of compound, dissolved in DMSO, was into the 96-well plates, with 50 μl in each well, and incubation continued for 1 hour at 37° C.
After the incubation, the medium was removed and the 96-well plate was put in −80° C. freezer for an hour or longer. The plate and the ONE-Glo reagent (Promega, Catalog Number: E6110) which was frozen in −80° C., were taken out and rewarmed to room temperature. […] After incubating for 10 minutes at room temperature, the plate was read using microplate luminescence reader at 560 nm.
The microplate reader records luminescence in relative luminescence units (RLU).

Turning to `Cc1ccccc1C(=O)Nc1c(C)cc(S(=O)(=O)N[C@H](C)C2CCNCC2)cc1Cl` [Compound 180A, (R)-N-(2-chloro-6-methyl-4-(N-(1-(piperidin-4-yl)ethyl)sulfamoyl)phenyl)-2-methylbenzamide hydrochloride], the half-maximal inhibitory concentration (IC50) is 9 nM.
